Assay results taken from ChEMBL document CHEMBL1201862, “PubChem BioAssay data set” (2004).
Calls of active or inactive are those of the source.

What was measured:
[1] = cells
[2] = biological target: Arf-GAP with SH3 domain, ANK repeat and PH domain-containing protein 1 (Homo sapiens, UniProt Q9ULH1); format: functional;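 also: biochemical fluorescence polarization dose–response screen measuring inhibition of ASAP1; ASAP1 GAP domain stimulating GTP hydrolysis by truncated human ARF1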
[3] = inhibitors of intracellular T. cruzi replication, confirmation, NIH3T3 host cells, beta-gal luminescence (AID 2044); format: functional, cell-based;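 also: intracellular parasites grown in NIH/3T3 mouse fibroblasts as host cells; luminescent beta-galactosidase reporter signal from transgenic T. cruzi replicating inside host cells; inhibitors lower the luminescence signal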
[4] = cytotoxicity toward NIH3T3 fibroblasts, dose response, counter-screen, cell-based, ATP luminescence, mouse fibroblasts (AID 2010); format: functional;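 also: cells exposed to compound for about 90 hours before reading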
[5] = biological target: T1, Beta-lactamase (Pseudomonas aeruginosa, UniProt Q79MP6); test: IMP-1 metallo-beta-lactamase inhibitors, dose response, selectivity assay for VIM-2 inhibitor project, biochemical, epi-absorbance (AID 1920)
[6] = biological target: Beta-lactamase (Salmonella choleraesuis (strain SC-B67), UniProt Q5J463); test: Epi-absorbance-based counterscreen for selective VIM-2 inhibitors: dose response biochemical high throughput screening assay to identify inhibitors of TEM-1 serine-beta-lactamase.
[7] = biological target: T1, Beta-lactamase; test: […] counterscreen for selective VIM-2 inhibitors: dose response biochemical high throughput screening assay to identify inhibitors of IMP-1 metallo-beta-lactamase.
[8] = biological target: Trypsin (Sus scrofa, UniProt P00761); test: porcine trypsin inhibitors, dose response, selectivity assay for Rce1 protease inhibitor project, biochemical, quenched peptide fluorescence, cherry-pick (AID 488789)
[9] = system: Streptococcus sp. 'group A'; test: growth inhibition of control SK(-) GAS strain, dose response, counter-screen for streptokinase expression inhibitor project, luminescence, kanamycin, BacTiterGlo, confirmation (AID 1900); format: functional, organism-based
[10] = biological target: Broad substrate specificity ATP-binding cassette transporter ABCG2 (Homo sapiens, UniProt Q9UNQ0); test: ABCG2 efflux pump inhibitors, dose response, Ig-MXP3 cells, flow cytometry (AID 1690); format: functional
[11] = system: Streptococcus; test: Group A Streptococcus viability loss, dose response, counter-screen for streptokinase expression inhibitor project, luminescence, BacTiterGlo (AID 1915); format: functional, organism-based;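 also: potency for reduction of bacterial viability or growth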
[12] = biological target: T2, Streptokinase A (Streptococcus pyogenes serotype M1, UniProt P10520); test: S. pyogenes streptokinase expression inhibitors, potency, dose response, plasminogen activation absorbance, OD405 (AID 1914); format: functional, Streptococcus pyogenes M1 GAS;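 also: secreted streptokinase activity via plasminogen activation per viability signal from cell pellet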
T2 sequence (P10520 whole entry): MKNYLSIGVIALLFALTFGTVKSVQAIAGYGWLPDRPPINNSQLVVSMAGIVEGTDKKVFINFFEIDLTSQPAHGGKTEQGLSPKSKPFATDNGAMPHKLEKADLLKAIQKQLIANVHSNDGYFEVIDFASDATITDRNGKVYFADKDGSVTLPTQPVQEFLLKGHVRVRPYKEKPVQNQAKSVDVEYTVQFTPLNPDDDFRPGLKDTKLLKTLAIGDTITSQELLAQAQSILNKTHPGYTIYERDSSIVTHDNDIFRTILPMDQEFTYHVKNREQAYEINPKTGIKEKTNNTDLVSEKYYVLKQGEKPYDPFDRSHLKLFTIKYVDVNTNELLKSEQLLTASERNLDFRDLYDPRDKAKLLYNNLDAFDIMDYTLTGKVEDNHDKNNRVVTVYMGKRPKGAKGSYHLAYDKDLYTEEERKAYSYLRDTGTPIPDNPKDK

[13] = biological target: T3, Short transient receptor potential channel 4 (Mus musculus, UniProt Q9QUQ5); test: mouse TRPC4 channel inhibitors, dose response, cell-based, HEK293 TRPC4/mu-opioid, Fluo-4 calcium (AID 434942); format: functional;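 also: potency of inhibitors blocking the TRPC4 calcium response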
T3 sequence (Q9QUQ5 whole entry): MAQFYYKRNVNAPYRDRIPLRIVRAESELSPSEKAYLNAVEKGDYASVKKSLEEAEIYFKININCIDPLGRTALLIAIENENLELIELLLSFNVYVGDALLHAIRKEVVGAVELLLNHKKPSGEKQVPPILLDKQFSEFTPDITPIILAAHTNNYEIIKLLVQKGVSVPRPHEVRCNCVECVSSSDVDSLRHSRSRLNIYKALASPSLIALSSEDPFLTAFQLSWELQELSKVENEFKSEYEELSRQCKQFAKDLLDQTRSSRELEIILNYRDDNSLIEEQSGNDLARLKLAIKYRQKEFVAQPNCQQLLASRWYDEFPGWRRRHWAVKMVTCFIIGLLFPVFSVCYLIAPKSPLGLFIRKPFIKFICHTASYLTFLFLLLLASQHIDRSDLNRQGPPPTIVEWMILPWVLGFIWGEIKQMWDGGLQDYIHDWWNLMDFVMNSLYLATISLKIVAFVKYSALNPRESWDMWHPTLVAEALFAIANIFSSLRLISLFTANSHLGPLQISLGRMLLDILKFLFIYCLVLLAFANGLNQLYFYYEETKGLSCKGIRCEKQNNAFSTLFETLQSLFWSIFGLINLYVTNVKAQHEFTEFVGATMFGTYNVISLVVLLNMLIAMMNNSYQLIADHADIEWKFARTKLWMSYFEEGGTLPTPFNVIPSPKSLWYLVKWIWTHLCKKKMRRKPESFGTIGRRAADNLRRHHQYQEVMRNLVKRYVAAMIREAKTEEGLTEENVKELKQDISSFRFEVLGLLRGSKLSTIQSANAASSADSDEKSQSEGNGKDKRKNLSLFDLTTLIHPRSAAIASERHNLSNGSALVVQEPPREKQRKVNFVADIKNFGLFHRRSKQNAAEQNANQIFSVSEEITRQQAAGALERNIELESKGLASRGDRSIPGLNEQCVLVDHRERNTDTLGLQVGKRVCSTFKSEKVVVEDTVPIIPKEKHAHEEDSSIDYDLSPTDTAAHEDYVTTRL

[14] = biological target: T4, DNA repair protein RAD52 homolog (Homo sapiens, UniProt P43351); format: functional, biochemical
T4 sequence (P43351 whole entry): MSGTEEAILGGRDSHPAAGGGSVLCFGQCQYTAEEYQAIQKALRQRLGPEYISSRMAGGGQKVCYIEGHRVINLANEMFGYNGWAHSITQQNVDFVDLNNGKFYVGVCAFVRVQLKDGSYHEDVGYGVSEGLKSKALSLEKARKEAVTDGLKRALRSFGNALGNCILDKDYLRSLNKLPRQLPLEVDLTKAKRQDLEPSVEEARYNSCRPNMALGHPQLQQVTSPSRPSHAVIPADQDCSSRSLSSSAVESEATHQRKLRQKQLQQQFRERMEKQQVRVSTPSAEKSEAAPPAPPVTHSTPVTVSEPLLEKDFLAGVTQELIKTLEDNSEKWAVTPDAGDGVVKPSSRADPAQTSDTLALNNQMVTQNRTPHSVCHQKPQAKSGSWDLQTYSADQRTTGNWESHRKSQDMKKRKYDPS

[15] = Counterscreen for activators of the function of SWI/SNF related, matrix associated, actin dependent regulator of chromatin, subfamily a, member 2 (SMARCA2, BRM): Luminescence-based cell-based high throughput dose response assay to identify non-selective compounds using the VP16 reporter assay.; format: functional
[16] = biological target: SWI/SNF-related matrix-associated actin-dependent regulator of chromatin subfamily A member 2 (Homo sapiens, UniProt P51531); test: Luminescence-based cell-based high throughput dose response assay to identify activators of the function of SWI/SNF related, matrix associated, actin dependent regulator of chromatin, subfamily a, member 2 (SMARCA2, BRM).; format: functional
Sequence of SWI/SNF-related matrix-associated actin-dependent regulator of chromatin subfamily A member 2 (P51531 whole entry): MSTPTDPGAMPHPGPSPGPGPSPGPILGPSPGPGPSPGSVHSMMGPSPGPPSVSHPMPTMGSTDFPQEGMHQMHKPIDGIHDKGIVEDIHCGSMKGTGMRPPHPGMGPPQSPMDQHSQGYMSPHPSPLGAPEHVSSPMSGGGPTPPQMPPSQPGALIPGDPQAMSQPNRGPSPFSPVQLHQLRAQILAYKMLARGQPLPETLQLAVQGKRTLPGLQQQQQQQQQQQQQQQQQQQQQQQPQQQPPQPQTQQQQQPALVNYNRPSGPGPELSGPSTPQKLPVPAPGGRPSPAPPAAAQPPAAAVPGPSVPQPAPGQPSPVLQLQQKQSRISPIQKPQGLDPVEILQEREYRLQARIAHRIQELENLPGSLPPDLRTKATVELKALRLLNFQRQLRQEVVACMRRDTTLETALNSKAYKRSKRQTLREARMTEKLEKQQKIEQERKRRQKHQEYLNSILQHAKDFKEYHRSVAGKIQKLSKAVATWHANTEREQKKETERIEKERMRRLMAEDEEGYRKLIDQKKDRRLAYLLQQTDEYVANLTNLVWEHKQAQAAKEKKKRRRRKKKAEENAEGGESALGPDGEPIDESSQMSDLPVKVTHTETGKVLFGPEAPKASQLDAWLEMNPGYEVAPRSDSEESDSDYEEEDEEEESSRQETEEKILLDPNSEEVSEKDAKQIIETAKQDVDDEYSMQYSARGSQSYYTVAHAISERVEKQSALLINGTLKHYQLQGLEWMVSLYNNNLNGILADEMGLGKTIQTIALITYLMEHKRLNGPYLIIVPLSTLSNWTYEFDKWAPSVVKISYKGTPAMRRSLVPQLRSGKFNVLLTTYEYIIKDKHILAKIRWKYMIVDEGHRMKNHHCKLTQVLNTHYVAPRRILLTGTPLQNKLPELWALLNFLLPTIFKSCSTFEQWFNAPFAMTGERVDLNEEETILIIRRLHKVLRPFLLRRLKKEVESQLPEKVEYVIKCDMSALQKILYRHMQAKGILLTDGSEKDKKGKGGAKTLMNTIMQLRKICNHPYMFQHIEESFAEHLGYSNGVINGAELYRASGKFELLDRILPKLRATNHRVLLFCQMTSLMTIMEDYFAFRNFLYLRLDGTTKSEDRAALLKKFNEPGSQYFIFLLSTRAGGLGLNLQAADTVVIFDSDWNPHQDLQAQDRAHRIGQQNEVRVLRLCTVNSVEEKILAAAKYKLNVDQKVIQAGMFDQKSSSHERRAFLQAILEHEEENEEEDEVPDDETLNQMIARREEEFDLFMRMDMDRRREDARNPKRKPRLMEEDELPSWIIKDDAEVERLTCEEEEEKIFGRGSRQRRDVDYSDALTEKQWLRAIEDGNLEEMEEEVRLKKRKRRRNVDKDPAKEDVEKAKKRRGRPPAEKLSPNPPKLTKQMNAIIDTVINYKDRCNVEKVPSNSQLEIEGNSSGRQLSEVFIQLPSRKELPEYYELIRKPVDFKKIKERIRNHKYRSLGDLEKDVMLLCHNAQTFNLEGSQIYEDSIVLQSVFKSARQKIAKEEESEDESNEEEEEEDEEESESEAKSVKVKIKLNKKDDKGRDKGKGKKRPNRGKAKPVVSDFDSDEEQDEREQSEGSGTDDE

T1 sequence (Q79MP6 whole entry): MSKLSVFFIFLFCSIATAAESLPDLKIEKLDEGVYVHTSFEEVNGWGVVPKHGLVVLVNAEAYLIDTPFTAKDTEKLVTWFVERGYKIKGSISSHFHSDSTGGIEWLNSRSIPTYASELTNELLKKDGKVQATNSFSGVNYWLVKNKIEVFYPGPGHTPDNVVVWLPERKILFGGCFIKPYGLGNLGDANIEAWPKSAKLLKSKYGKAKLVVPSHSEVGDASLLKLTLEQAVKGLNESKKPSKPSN
Sequence of Beta-lactamase (Salmonella choleraesuis (strain SC-B67), UniProt Q5J463) (Q5J463 whole entry): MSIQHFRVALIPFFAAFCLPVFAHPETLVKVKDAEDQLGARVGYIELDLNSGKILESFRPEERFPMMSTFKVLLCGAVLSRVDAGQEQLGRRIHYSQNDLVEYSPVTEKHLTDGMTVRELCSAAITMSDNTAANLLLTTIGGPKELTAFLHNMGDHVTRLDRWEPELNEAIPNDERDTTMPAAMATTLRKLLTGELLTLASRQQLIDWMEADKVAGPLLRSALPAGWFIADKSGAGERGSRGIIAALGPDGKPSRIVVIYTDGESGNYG
Sequence of Arf-GAP with SH3 domain, ANK repeat and PH domain-containing protein 1 (Q9ULH1 whole entry, the tested form may be a part): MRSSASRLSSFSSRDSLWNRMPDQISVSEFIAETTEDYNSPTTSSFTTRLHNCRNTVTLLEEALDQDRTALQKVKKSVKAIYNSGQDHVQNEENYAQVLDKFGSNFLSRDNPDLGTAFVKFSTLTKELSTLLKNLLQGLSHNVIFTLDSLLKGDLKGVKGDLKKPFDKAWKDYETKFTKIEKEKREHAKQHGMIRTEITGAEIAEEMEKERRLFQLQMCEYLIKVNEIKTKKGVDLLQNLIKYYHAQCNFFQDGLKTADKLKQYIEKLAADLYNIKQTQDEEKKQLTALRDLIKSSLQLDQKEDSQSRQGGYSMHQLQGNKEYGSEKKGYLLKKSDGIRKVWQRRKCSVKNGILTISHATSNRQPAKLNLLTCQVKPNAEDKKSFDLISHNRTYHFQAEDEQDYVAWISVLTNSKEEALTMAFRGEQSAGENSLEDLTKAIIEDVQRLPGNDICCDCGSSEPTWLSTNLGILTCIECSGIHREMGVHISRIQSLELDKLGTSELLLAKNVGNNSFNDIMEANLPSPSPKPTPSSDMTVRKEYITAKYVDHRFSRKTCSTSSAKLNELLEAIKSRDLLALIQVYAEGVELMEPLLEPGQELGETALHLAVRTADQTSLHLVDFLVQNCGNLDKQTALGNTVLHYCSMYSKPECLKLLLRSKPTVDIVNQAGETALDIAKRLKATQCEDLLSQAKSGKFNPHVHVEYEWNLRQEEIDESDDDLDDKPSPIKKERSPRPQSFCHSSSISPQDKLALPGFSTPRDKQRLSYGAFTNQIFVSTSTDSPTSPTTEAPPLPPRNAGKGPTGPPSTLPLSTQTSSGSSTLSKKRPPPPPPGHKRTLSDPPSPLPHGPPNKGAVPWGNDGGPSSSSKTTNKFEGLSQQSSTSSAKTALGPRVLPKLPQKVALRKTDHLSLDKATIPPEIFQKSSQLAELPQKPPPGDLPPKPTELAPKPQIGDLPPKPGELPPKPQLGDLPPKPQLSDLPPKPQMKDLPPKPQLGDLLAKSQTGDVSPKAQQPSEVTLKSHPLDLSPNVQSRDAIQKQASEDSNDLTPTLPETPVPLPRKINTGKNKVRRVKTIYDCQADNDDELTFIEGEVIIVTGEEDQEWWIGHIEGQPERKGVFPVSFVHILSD
Sequence of Broad substrate specificity ATP-binding cassette transporter ABCG2 (Q9UNQ0 whole entry): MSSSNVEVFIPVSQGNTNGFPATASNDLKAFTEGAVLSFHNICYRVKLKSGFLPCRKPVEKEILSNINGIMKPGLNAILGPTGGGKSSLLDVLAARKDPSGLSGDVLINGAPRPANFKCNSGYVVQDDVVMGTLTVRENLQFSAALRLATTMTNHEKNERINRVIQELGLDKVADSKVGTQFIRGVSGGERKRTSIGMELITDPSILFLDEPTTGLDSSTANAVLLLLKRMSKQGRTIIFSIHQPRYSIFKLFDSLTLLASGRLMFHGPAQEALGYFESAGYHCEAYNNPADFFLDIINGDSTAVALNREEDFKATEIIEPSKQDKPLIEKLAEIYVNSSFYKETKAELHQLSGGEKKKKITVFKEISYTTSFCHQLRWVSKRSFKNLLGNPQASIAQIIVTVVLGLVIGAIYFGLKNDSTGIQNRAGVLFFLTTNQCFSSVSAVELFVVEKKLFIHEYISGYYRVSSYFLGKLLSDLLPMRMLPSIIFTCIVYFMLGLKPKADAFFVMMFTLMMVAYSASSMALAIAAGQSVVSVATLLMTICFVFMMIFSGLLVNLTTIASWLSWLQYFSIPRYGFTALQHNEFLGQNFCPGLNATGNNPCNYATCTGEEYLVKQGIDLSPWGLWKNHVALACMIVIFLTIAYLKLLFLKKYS
Sequence of Trypsin (P00761 whole entry): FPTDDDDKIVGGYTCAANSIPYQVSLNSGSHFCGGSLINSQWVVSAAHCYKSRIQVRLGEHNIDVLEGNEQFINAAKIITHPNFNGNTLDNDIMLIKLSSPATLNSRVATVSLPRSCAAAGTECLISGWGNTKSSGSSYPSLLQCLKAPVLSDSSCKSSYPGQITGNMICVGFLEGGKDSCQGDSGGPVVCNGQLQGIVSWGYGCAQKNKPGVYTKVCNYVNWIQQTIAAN

In the case of COc1cc2oc3ccc(C#Cc4ccccn4)cc3c(=O)c2cc1OC, the EC50 [1] is reported as 0.183 µM (active), the IC50 [2] is reported as 44.1 µM (inactive) and the EC50 [3] is reported as < 0.1 µM (active). The EC50 [4] was > 60 µM (not active).
In the case of CCCCn1c(S)nnc1-c1sccc1C, the IC50 [5] is reported as > 59.6 µM (inactive), the IC50 [6] is reported as > 59.6 µM (inactive) and the IC50 [7] is reported as > 59.6 µM (inactive). The AC50 [8] was 10 µM (active).
With COc1cccc(-c2nc(N3CC(C)CC(C)C3)c3ccccc3n2)c1O (stereo not drawn) the EC50 [9] was 5.15 µM (active), the EC50 [10] was 1.04 µM (active) and the EC50 [11] was 82.5 µM (active). For the same molecule, the EC50 [3] was 1.84 µM (active), the EC50 [12] was 6.53 µM (active) and the EC50 [4] was > 60 µM (not active).
In the case of COc1nc(NC(=N)N)nc2ccc(C)cc12, the EC50 [13] is reported as 5.31 µM (active), the AC50 [14] is reported as 9.39 µM (active) and the EC50 [15] is reported as > 91.2 µM (inactive). The EC50 [16] was > 3.38 µM (active).
